Assay results reported in patent publication US9340590B2 (priority 2011, dated 2016).
Positions of bridges follow the written chain, without caps; N, C: chain ends. Non-standard residues stand in square brackets, D forms with d. Residues, ends and D or L forms follow the SMILES beside them. *: point of attachment. DOTA = O=C(O)CN1CCN(CC(=O)O)CCN(CC(=O)*)CCN(CC(=O)O)CC1; Phe(4-COOH) = N[C@@H](Cc1ccc(C(=O)O)cc1)C(=O)O; Orn = NCCC[C@H](N)C(=O)O

What was measured:
hNav1.7 = hNav1.7 (Homo sapiens, UniProt Q15858); experiment: cell-based; details: Nav1.7 Use IC50
hNav1.5 = hNav1.5 (Homo sapiens, UniProt Q14524); experiment: cell-based
hNav1.5, sequence (Q14524 whole entry, looked up): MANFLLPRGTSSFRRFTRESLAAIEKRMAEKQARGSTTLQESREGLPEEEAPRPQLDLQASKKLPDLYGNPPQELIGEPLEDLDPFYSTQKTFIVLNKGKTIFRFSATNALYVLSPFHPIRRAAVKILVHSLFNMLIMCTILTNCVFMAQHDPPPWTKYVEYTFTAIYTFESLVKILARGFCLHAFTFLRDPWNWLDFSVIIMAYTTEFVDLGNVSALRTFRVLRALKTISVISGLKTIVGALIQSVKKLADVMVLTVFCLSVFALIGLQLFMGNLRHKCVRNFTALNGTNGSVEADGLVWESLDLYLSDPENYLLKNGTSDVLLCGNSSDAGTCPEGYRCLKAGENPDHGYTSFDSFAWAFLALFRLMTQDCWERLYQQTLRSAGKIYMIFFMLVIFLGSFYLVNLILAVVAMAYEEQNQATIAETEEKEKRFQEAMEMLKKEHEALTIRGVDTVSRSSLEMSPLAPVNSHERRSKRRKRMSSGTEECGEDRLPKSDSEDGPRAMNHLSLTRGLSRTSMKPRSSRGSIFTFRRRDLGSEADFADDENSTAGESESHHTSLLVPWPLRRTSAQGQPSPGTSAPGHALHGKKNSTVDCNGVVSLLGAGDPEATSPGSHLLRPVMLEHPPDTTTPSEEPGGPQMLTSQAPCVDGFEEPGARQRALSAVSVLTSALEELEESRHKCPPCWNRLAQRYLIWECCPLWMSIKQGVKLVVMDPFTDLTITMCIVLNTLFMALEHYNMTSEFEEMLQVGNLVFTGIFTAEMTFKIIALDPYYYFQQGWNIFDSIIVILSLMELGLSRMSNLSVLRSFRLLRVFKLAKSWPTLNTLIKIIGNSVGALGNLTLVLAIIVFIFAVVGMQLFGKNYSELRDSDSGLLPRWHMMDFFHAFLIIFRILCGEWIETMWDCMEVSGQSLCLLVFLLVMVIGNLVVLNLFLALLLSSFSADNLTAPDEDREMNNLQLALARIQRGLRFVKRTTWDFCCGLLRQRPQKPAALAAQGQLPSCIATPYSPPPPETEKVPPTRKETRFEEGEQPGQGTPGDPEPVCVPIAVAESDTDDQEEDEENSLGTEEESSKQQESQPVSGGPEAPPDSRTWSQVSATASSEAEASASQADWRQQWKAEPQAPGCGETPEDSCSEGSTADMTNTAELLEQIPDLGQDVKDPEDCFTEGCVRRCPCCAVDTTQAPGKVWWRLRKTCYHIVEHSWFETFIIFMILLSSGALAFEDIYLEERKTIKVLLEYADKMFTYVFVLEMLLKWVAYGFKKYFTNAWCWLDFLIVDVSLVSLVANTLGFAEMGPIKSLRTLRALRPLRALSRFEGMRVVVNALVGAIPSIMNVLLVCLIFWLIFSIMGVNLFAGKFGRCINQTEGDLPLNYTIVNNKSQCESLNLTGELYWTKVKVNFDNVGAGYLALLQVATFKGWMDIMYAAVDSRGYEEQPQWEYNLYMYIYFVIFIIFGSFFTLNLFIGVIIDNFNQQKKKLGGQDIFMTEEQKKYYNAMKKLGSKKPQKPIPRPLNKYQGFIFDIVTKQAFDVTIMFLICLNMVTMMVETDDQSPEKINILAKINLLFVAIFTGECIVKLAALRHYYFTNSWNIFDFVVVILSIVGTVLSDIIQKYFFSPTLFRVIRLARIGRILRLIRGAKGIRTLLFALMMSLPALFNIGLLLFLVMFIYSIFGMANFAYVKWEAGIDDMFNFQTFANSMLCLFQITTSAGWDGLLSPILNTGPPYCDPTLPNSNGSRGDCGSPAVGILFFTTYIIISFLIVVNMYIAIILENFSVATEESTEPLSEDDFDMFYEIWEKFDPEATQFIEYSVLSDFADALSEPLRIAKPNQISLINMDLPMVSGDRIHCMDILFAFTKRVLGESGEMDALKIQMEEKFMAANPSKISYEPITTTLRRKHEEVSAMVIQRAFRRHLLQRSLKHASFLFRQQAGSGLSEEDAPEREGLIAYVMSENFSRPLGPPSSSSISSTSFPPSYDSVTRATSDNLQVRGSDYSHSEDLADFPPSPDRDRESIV

hNav1.7, sequence (Q15858 whole entry, looked up): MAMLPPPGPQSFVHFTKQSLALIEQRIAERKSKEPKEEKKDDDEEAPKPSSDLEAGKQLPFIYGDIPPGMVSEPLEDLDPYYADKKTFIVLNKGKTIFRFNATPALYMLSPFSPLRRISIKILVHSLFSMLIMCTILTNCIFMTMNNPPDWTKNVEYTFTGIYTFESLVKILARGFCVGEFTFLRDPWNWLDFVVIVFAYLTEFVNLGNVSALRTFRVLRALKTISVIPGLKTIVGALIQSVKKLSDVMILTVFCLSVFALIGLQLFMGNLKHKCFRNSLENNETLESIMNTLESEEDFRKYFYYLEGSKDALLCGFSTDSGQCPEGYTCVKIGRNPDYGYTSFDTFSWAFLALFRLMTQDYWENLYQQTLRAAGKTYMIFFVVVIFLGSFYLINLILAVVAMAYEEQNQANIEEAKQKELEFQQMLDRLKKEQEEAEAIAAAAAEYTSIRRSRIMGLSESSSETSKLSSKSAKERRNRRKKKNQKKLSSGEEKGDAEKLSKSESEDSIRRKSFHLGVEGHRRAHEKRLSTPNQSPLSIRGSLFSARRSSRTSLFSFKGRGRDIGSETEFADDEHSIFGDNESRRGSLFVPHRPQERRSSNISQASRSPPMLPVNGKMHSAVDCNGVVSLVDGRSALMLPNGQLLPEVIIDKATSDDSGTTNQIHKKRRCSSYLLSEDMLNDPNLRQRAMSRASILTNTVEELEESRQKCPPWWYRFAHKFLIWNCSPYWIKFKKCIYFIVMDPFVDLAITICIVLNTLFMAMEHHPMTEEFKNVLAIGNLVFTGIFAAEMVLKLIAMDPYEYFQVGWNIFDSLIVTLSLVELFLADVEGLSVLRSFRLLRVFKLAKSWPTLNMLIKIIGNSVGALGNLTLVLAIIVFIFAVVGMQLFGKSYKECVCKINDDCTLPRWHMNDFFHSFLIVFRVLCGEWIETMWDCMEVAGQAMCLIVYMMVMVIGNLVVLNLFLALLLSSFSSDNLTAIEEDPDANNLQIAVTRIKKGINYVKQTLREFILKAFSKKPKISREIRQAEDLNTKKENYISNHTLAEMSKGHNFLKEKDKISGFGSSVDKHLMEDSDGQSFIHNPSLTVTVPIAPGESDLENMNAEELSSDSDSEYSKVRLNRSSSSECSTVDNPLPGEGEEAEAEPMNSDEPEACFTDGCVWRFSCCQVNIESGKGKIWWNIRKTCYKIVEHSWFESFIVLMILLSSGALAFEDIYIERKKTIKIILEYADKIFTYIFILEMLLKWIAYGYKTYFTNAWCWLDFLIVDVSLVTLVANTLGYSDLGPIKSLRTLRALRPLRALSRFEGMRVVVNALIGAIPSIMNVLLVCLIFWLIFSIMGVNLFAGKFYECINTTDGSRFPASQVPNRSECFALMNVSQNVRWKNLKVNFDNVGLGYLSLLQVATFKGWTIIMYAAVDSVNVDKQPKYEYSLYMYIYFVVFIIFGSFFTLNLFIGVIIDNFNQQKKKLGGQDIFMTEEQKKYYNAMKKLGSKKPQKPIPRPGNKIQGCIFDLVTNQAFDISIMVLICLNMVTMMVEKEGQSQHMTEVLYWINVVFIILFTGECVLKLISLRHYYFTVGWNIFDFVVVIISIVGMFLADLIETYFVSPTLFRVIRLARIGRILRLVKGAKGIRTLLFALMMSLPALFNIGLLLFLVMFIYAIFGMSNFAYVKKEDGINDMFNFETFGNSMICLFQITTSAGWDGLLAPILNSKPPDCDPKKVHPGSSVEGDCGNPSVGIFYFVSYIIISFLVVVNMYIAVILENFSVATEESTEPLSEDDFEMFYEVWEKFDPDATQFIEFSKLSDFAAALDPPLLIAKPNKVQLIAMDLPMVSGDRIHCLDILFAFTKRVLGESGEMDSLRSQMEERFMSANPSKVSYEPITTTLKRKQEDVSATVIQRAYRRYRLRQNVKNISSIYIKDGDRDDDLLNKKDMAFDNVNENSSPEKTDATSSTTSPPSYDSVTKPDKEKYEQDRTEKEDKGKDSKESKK

| SMILES | IC50 (hNav1.7) | IC50 (hNav1.5) |
| --- | --- | --- |
| CC[C@H](C)[C@@H]1NC(=O)[C@@H]2CSSC[C@@H]3NC(=O)[C@H](C(C)C)NC(=O)[C@H](CC(C)C)NC(=O)[C@H](CC(N)=O)NC(=O)[C@H](CCCCN)NC(=O)[C@H](CCCNC(=N)N)NC(=O)[C@H](CSSC[C@H](NC(=O)[C@@H](N)CC(=O)O)C(=O)N[C@@H](CC(C)C)C(=O)NCC(=O)N[C@@H](Cc4ccccc4)C(=O)N[C@@H](CCSC)C(=O)N[C@@H](CCCNC(=N)N)C(=O)N[C@@H](CCCCN)C(=O)N2)NC(=O)[C@H](CSSC[C@@H](C(=O)N[C@@H](CCCCN)C(=O)N[C@@H](Cc2ccc(O)cc2)C(=O)N[C@H](C(=O)N[C@@H](Cc2ccccc2)C(N)=O)C(C)C)NC(=O)[C@H](Cc2c[nH]c4ccccc24)NC(=O)[C@H](CCCCN)NC(=O)[C@H](Cc2cnc[nH]2)NC(=O)[C@H]([C@@H](C)O)NC(=O)[C@H](CCCNC(=N)N)NC(=O)[C@H](CO)NC3=O)NC(=O)[C@H](CCCCN)NC(=O)[C@H](CC(=O)O)NC(=O)[C@H](CC(N)=O)NC(=O)[C@H](CC(=O)O)NC(=O)[C@@H]2CCCN2C1=O [[Lys19]GpTx-1(1-34)] (H-DCLGFMRKCIPDNDKCCRKNLVCSRTHKWCKYVF-NH2; disulfide 2-17, 9-23, 16-30) | 3 nM | 9100 nM |
| CC[C@H](C)[C@@H]1NC(=O)[C@@H]2CSSC[C@@H]3NC(=O)[C@H](C(C)C)NC(=O)[C@H](CC(C)C)NC(=O)[C@H](CC(N)=O)NC(=O)[C@@H]4CCCN4C(=O)[C@H](CCCNC(=N)N)NC(=O)[C@H](CSSC[C@H](NC(=O)[C@@H](N)CC(=O)O)C(=O)N[C@@H](CC(C)C)C(=O)NCC(=O)N(C)[C@@H](C(C)C)C(=O)N[C@@H](CC(C)C)C(=O)N[C@@H](CCCNC(=N)N)C(=O)N[C@@H](CCCCN)C(=O)N2)NC(=O)[C@H](CSSC[C@@H](C(=O)N[C@@H](CCCCN)C(=O)N[C@@H](Cc2ccc(O)cc2)C(=O)N[C@H](C(=O)N[C@@H](Cc2ccccc2)C(N)=O)C(C)C)NC(=O)[C@H](Cc2c[nH]c4ccccc24)NC(=O)[C@H](CCCCN)NC(=O)[C@H](Cc2c[nH]cn2)NC(=O)[C@H]([C@@H](C)O)NC(=O)[C@H](CCCNC(=N)N)NC(=O)[C@H](CO)NC3=O)NC(=O)[C@H](CCCCN)NC(=O)[C@H](CC(=O)O)NC(=O)[C@H](CC(N)=O)NC(=O)[C@H](CC(=O)O)NC(=O)[C@@H]2CCCN2C1=O [[NMeVal5;Leu6]GpTx-1(1-34)] | 50 nM | > 10000 nM |
| CC[C@H](C)[C@@H]1NC(=O)[C@@H]2CSSC[C@@H]3NC(=O)[C@H](C(C)C)NC(=O)[C@H](CC(C)C)NC(=O)[C@H](CC(N)=O)NC(=O)[C@@H]4CCCN4C(=O)[C@H](CCCNC(=N)N)NC(=O)[C@H](CSSC[C@H](NC(=O)[C@@H](N)CC(=O)O)C(=O)N[C@@H](CC(C)C)C(=O)NCC(=O)N[C@@H](CO)C(=O)N[C@@H](Cc4ccccc4)C(=O)N[C@@H](CCCNC(=N)N)C(=O)N[C@@H](CCCCN)C(=O)N2)NC(=O)[C@H](CSSC[C@@H](C(=O)N[C@@H](CCCCN)C(=O)N[C@@H](Cc2ccc(O)cc2)C(=O)N[C@H](C(=O)N[C@@H](Cc2ccccc2)C(N)=O)C(C)C)NC(=O)[C@H](Cc2c[nH]c4ccccc24)NC(=O)[C@H](CCCCN)NC(=O)[C@H](Cc2c[nH]cn2)NC(=O)[C@H]([C@@H](C)O)NC(=O)[C@H](CCCNC(=N)N)NC(=O)[C@H](CO)NC3=O)NC(=O)[C@H](CCCCN)NC(=O)[C@H](CC(=O)O)NC(=O)[C@H](CC(N)=O)NC(=O)[C@H](CC(=O)O)NC(=O)[C@@H]2CCCN2C1=O [[Ser5;Phe6]GpTx-1(1-34)] (H-DCLGSFRKCIPDNDKCCRPNLVCSRTHKWCKYVF-NH2; disulfide 2-17, 9-23, 16-30) | 24 nM | > 10000 nM |
| CC[C@H](C)[C@@H]1NC(=O)[C@@H]2CSSC[C@@H]3NC(=O)[C@H](C(C)C)NC(=O)[C@H](CC(C)C)NC(=O)[C@H](CC(N)=O)NC(=O)[C@@H]4CCCN4C(=O)[C@H](CCCNC(=N)N)NC(=O)[C@H](CSSC[C@H](NC(=O)[C@@H](N)CC(=O)O)C(=O)N[C@@H](CC(C)C)C(=O)NCC(=O)N[C@@H](C)C(=O)N[C@@H](Cc4ccccc4)C(=O)N[C@@H](CCCNC(=N)N)C(=O)N[C@@H](CCCCN)C(=O)N2)NC(=O)[C@H](CSSC[C@@H](C(=O)N[C@@H](CCCCN)C(=O)N[C@@H](Cc2ccc(O)cc2)C(=O)N[C@H](C(=O)N[C@@H](Cc2ccccc2)C(N)=O)C(C)C)NC(=O)[C@H](Cc2c[nH]c4ccccc24)NC(=O)[C@H](CCCNC(=N)N)NC(=O)[C@H](Cc2c[nH]cn2)NC(=O)[C@H](CC(C)C)NC(=O)[C@H](CCCNC(=N)N)NC(=O)[C@H](CO)NC3=O)NC(=O)[C@H](CCCCN)NC(=O)[C@H](CC(=O)O)NC(=O)[C@H](CCCCNC(=O)CN2CCN(CC(=O)O)CCN(CC(=O)O)CCN(CC(=O)O)CC2)NC(=O)[C@H](CC(=O)O)NC(=O)[C@@H]2CCCN2C1=O (H-DCLGAFRKCIPDK(DOTA)DKCCRPNLVCSRLHRWCKYVF-NH2; disulfide 2-17, 9-23, 16-30) | 27.5 nM | > 10000 nM |
| CC[C@H](C)[C@@H]1NC(=O)[C@@H]2CSSC[C@@H]3NC(=O)[C@H](C(C)C)NC(=O)[C@H](CC(C)C)NC(=O)[C@H](CC(N)=O)NC(=O)[C@@H]4CCCN4C(=O)[C@H](CCCNC(=N)N)NC(=O)[C@H](CSSC[C@H](NC(=O)[C@@H](N)CC(=O)O)C(=O)N[C@@H](CC(C)C)C(=O)NCC(=O)N[C@@H](C)C(=O)N[C@@H](CCSC)C(=O)N[C@@H](CCCNC(=N)N)C(=O)N[C@@H](CCCCN)C(=O)N2)NC(=O)[C@H](CSSC[C@@H](C(=O)N[C@@H](CCCCN)C(=O)N[C@@H](Cc2ccc(O)cc2)C(=O)N[C@H](C(=O)N[C@@H](Cc2ccccc2)C(N)=O)C(C)C)NC(=O)[C@H](Cc2c[nH]c4ccccc24)NC(=O)[C@H](CCCN)NC(=O)[C@H](Cc2c[nH]cn2)NC(=O)[C@H]([C@@H](C)O)NC(=O)[C@H](CCCNC(=N)N)NC(=O)[C@H](CO)NC3=O)NC(=O)[C@H](CCCCN)NC(=O)[C@H](CC(=O)O)NC(=O)[C@H](CC(N)=O)NC(=O)[C@H](CC(=O)O)NC(=O)[C@@H]2CCCN2C1=O [[Ala5;Orn28]GpTx-1(1-34)] (H-DCLGAMRKCIPDNDKCCRPNLVCSRTH[Orn]WCKYVF-NH2; disulfide 2-17, 9-23, 16-30) | 59 nM | > 10000 nM |
| CC[C@H](C)[C@@H]1NC(=O)[C@@H]2CSSC[C@@H]3NC(=O)[C@H](C(C)C)NC(=O)[C@H](CC(C)C)NC(=O)[C@H](CC(N)=O)NC(=O)[C@@H]4CCCN4C(=O)[C@H](CCCNC(=N)N)NC(=O)[C@H](CSSC[C@H](NC(=O)[C@@H](N)CC(=O)O)C(=O)N[C@@H](CC(C)C)C(=O)NCC(=O)N(C)[C@@H](Cc4ccccc4)C(=O)N[C@@H](CCSC)C(=O)N[C@@H](CCCNC(=N)N)C(=O)N[C@@H](CCCCN)C(=O)N2)NC(=O)[C@H](CSSC[C@@H](C(=O)N[C@@H](CCCCN)C(=O)N[C@@H](Cc2ccc(O)cc2)C(=O)N[C@H](C(=O)N[C@@H](Cc2ccccc2)C(N)=O)C(C)C)NC(=O)[C@H](Cc2c[nH]c4ccccc24)NC(=O)[C@H](CCCCN)NC(=O)[C@H](Cc2c[nH]cn2)NC(=O)[C@H]([C@@H](C)O)NC(=O)[C@H](CCCNC(=N)N)NC(=O)[C@H](CO)NC3=O)NC(=O)[C@H](CCCCN)NC(=O)[C@H](CC(=O)O)NC(=O)[C@H](CC(N)=O)NC(=O)[C@H](CC(=O)O)NC(=O)[C@@H]2CCCN2C1=O [[NMePhe5]GpTx-1(1-34)] | 18 nM | > 10000 nM |
| CC[C@H](C)[C@@H]1NC(=O)[C@@H]2CSSC[C@@H]3NC(=O)[C@H](C(C)C)NC(=O)[C@H](CC(C)C)NC(=O)[C@H](CC(N)=O)NC(=O)[C@@H]4CCCN4C(=O)[C@H](CCCNC(=N)N)NC(=O)[C@H](CSSC[C@H](NC(=O)[C@@H](N)CC(=O)O)C(=O)N[C@@H](CC(C)C)C(=O)NCC(=O)N[C@@H](Cc4ccccc4)C(=O)N[C@@H](CCSC)C(=O)N[C@@H](CCCNC(=N)N)C(=O)N[C@@H](CCCCN)C(=O)N2)NC(=O)[C@H](CSSC[C@@H](C(=O)N[C@@H](CCCCN)C(=O)N[C@@H](Cc2ccc(O)cc2)C(=O)N[C@H](C(=O)N[C@@H](Cc2ccccc2)C(N)=O)C(C)C)NC(=O)[C@H](Cc2c[nH]c4ccccc24)NC(=O)[C@H](CCCCN)NC(=O)[C@H](Cc2c[nH]cn2)NC(=O)[C@H](Cc2ccc(C(=O)O)cc2)NC(=O)[C@H](CCCNC(=N)N)NC(=O)[C@H](CO)NC3=O)NC(=O)[C@H](CCCCN)NC(=O)[C@H](CC(=O)O)NC(=O)[C@H](CC(N)=O)NC(=O)[C@H](CC(=O)O)NC(=O)[C@@H]2CCCN2C1=O [[4CO2-F26]GpTx-1(1-34)] (H-DCLGFMRKCIPDNDKCCRPNLVCSR[Phe(4-COOH)]HKWCKYVF-NH2; disulfide 2-17, 9-23, 16-30) | 65 nM | > 10000 nM |
| CC[C@H](C)[C@@H]1NC(=O)[C@@H]2CSSC[C@@H]3NC(=O)[C@H](Cc4c[nH]c5ccccc45)NC(=O)[C@H](CC(C)C)NC(=O)[C@H](CC(N)=O)NC(=O)[C@@H]4CCCN4C(=O)[C@H](CCCNC(=N)N)NC(=O)[C@H](CSSC[C@H](NC(=O)[C@@H](N)CC(=O)O)C(=O)N[C@@H](CC(C)C)C(=O)NCC(=O)N[C@@H](Cc4ccccc4)C(=O)N[C@@H](CCSC)C(=O)N[C@@H](CCCNC(=N)N)C(=O)N[C@@H](CCCCN)C(=O)N2)NC(=O)[C@H](CSSC[C@@H](C(=O)N[C@@H](CCCCN)C(=O)N[C@@H](Cc2ccc(O)cc2)C(=O)N[C@H](C(=O)N[C@@H](Cc2ccccc2)C(N)=O)C(C)C)NC(=O)[C@H](Cc2c[nH]c4ccccc24)NC(=O)[C@H](CCCCN)NC(=O)[C@H](Cc2cnc[nH]2)NC(=O)[C@H]([C@@H](C)O)NC(=O)[C@H](CCCNC(=N)N)NC(=O)[C@H](CO)NC3=O)NC(=O)[C@H](CCCCN)NC(=O)[C@H](CC(=O)O)NC(=O)[C@H](CC(N)=O)NC(=O)[C@H](CC(=O)O)NC(=O)[C@@H]2CCCN2C1=O [[Trp22]GpTx-1(1-34)] (H-DCLGFMRKCIPDNDKCCRPNLWCSRTHKWCKYVF-NH2; disulfide 2-17, 9-23, 16-30) | 39 nM | 4780 nM |
